# Test results: PMC11224359, “Stable peptide-assembled nanozyme mimicking dual antifungal actions” (Nature Communications, 2024)
# Assay: Peptide self-assembly morphology by TEM
# Assay type: physicochemical
# Protocol: Powders of each of the peptides were dissolved in 1.5 mM Ni(Ac)2 solution to a certain concentration range (e.g. 0.0–1.5 mM) and sonicated for a period of time, and were then allowed to cool gradually to 25 °C overnight. Aged samples could be left at room temperature for more than 90 days.
# TEM images were recorded using a JEM1200EX (JEOL) (Japan) operating at 100 kV dropped on a double copper net. Typically, 1.5 mM samples are diluted 10-fold and stained with 3% uranyl acetate for viewing. For AFM, liquid Ni-IH-7 ([…]) was dropped on a mica sheet and observed by Bruker Dension Icon (Germany). The AMFM data were fitted using the Analyze panel module in Igor Pro software to obtain a modulus curve, yielding the average Young’s modulus. Simultaneously, we utilized the Hertz model force curve fitting results to validate the reliability of the Young’s modulus. Cryo-EM and two-dimensional classification data of Ni-IH-7 were collected by Talos Arctica 200 kV FEG (USA). AMFM was tested using Cypher S (USA) in the presence of AC160TS-R3 (probe). Samples were diluted 50 times and dried on mica flakes. KPFM was tested using Cypher S (USA) and obtain the Contact potential difference. The standard highly oriented pyrolytic graphite was 675 mV. HAADF-STEM was obtained by JEM ARM 200 F (accelerating voltage: 200 kV) (JEOL, Japan).
substance,measurement,value
ICICICI [heptapeptide ICICICI],assembly into nanostructure,could not form typical nanostructure
